Results published in ChEMBL document CHEMBL5528056, “BAY-9835: Discovery of the First Orally Bioavailable ADAMTS7 Inhibitor” (J Med Chem, 2024).
Values after ≈ are worked out from the molar mass of the structure shown.

Columns and labels:
[1] = biological target: Cytochrome P450 3A4 (Homo sapiens, UniProt P08684); assay: Induction of CYP3A4 in human hepatocytes upto 61 uM incubated for 48 hrs by qPCR analysis; format: ADME, cell-based, Hepatocyte
[2] = Dose normalized AUC in Wistar rat at 1 mg/kg, po measured for >24 hrs by HPLC-MS/MS analysis; format: ADME, organism-based; details: in vivo
[3] = Solubility of compound in water at pH 7 measured after 24 hrs by HPLC analysis; format: physicochemical; details: buffer, pH 7, 24 h
[4] = biological target: T1, Cytochrome P450 2C8 (Homo sapiens, UniProt P10632); assay: Inhibition of CYP2C8 in human liver microsomes using amodiaquin as substrate upto 20 uM by LC-MS/MS analysis; format: ADME, Microsome
T1 sequence (P10632 whole entry): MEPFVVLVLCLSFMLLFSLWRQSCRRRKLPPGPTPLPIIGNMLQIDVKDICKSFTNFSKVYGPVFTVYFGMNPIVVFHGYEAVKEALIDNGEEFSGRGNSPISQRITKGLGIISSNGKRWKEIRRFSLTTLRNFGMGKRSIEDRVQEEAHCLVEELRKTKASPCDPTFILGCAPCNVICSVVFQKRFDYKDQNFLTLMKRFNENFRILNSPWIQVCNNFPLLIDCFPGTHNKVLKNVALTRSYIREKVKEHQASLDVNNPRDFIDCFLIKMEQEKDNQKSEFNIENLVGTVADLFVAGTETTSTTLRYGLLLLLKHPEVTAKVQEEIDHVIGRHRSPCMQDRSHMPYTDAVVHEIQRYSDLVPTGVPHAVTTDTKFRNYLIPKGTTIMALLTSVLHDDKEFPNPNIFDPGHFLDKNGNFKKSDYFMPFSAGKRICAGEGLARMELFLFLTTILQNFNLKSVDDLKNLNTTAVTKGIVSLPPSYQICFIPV

[5] = Selectivity ratio of IC50 for ADAMTS4 (unknown origin) to IC50 for ADAMTS7 (unknown origin)
[6] = Half life in C57bl6 mouse at 0.3 mg/kg, iv measured for >24 hrs by HPLC-MS/MS analysis; format: ADME, organism-based; details: in vivo
[7] = Volume of distribution at steady state in C57bl6 mouse at 0.3 mg/kg, iv measured for >24 hrs by HPLC-MS/MS analysis; format: ADME, organism-based; details: in vivo
[8] = Fraction unbound in rat plasma; format: ADME, cell-free
[9] = biological target: T1, Cytochrome P450 2C8; assay: Inhibition of CYP2C8 in human liver microsomes using diclofenac as substrate upto 20 uM by LC-MS/MS analysis; format: ADME, Microsome
[10] = Fraction unbound in dog plasma; format: ADME, cell-free, Canis lupus familiaris
[11] = Selectivity ratio of IC50 for ADAMTS5 (unknown origin) to IC50 for ADAMTS7 (unknown origin)
[12] = biological target: A disintegrin and metalloproteinase with thrombospondin motifs 7 (Mus musculus, UniProt Q68SA9); assay: Inhibition of recombinant mouse ADAMTS7 using HiLyteFluor-488 DELSSMVLELRGLRT-K(QXL520)-E-NH2 as substrate incubated for 120 mins by FRET assay
[13] = Selectivity ratio of IC50 for C-terminal 10His-tagged recombinant human MMP-14 (21 to 284 residues) expressed in Escherichia coli using McaKPLGL-Dpa-AR-NH2 as substrate to IC50 for ADAMTS7 (unknown origin)
[14] = biological target: Sodium channel protein type 5 subunit alpha (Homo sapiens, UniProt Q14524); assay: Inhibition of hNaV1.5 upto 10 uM by voltage clamp method; format: toxicity
[15] = Half life in C57bl6 mouse at 1 mg/kg, po measured for >24 hrs by HPLC-MS/MS analysis; format: ADME, organism-based; details: in vivo
[16] = Selectivity ratio of IC50 for MMP12 (unknown origin) to IC50 for ADAMTS7 (unknown origin)
[17] = Clearance in Beagle dog at 0.3 mg/kg, iv measured for >24 hrs by HPLC-MS/MS analysis; format: ADME, organism-based, Canis lupus familiaris; details: in vivo

Chain of Cytochrome P450 3A4 (P08684 whole entry): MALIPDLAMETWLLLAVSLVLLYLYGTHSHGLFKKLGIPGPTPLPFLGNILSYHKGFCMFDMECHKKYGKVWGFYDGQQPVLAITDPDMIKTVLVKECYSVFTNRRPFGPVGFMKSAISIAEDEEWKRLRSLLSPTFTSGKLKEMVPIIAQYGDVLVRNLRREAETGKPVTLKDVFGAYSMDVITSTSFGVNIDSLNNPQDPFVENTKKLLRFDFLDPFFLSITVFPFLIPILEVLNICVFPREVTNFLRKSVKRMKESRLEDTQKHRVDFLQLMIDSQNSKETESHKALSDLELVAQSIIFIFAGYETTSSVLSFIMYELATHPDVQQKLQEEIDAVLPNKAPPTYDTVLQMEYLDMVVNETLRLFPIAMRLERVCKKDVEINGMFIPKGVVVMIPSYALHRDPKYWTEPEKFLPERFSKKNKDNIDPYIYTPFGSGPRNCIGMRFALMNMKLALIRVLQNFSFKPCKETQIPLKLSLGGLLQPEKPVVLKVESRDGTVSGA
Chain of Sodium channel protein type 5 subunit alpha (Q14524 whole entry): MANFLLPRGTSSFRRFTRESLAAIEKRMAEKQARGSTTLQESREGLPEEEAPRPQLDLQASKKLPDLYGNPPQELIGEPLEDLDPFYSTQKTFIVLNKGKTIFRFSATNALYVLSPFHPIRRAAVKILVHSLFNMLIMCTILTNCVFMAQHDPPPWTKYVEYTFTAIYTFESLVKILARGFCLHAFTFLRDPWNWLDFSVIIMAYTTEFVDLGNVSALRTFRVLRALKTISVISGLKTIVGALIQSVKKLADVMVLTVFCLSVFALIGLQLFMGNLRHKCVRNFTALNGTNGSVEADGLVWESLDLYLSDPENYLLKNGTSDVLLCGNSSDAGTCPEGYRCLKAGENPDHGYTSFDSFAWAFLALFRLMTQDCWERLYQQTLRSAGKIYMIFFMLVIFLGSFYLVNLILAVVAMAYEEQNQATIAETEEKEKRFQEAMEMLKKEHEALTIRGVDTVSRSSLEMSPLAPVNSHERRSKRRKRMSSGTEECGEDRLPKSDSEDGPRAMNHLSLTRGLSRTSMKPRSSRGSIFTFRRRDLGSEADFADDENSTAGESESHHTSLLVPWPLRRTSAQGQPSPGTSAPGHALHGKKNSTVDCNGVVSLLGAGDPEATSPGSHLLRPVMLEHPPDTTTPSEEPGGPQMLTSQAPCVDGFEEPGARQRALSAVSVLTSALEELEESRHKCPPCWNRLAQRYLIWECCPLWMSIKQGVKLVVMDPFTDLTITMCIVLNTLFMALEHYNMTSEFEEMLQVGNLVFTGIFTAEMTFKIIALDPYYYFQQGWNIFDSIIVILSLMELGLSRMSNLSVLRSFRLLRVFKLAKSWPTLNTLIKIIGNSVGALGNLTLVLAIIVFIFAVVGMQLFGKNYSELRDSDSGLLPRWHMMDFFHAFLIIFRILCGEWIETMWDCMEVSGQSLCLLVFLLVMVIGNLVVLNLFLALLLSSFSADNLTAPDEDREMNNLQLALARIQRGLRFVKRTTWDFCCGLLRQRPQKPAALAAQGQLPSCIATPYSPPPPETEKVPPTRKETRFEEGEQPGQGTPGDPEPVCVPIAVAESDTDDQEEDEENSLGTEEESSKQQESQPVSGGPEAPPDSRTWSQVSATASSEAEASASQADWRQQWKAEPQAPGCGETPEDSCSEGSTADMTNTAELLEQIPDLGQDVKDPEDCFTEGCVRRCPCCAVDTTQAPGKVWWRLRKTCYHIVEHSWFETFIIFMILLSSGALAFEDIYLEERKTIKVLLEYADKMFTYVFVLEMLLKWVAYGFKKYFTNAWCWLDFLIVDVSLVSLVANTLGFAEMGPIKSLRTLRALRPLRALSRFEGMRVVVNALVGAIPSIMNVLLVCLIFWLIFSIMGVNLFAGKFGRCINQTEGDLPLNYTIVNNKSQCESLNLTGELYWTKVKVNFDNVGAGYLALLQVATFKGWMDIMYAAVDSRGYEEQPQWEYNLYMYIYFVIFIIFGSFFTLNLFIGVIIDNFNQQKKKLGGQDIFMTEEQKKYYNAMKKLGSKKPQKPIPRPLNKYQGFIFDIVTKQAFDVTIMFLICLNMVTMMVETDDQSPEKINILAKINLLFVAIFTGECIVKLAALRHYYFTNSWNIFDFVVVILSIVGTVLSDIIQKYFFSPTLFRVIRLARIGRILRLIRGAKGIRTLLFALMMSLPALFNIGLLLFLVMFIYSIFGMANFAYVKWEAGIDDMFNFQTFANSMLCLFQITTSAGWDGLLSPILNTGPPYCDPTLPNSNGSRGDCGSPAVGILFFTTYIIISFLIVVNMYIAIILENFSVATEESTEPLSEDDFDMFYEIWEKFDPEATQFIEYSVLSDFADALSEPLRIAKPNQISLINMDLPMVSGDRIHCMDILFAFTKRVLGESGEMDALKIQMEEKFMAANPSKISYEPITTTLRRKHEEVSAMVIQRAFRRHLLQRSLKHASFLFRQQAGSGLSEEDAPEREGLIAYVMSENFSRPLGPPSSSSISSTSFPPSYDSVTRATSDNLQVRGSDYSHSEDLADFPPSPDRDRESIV
Chain of A disintegrin and metalloproteinase with thrombospondin motifs 7 (Q68SA9 whole entry, the tested form may be a part): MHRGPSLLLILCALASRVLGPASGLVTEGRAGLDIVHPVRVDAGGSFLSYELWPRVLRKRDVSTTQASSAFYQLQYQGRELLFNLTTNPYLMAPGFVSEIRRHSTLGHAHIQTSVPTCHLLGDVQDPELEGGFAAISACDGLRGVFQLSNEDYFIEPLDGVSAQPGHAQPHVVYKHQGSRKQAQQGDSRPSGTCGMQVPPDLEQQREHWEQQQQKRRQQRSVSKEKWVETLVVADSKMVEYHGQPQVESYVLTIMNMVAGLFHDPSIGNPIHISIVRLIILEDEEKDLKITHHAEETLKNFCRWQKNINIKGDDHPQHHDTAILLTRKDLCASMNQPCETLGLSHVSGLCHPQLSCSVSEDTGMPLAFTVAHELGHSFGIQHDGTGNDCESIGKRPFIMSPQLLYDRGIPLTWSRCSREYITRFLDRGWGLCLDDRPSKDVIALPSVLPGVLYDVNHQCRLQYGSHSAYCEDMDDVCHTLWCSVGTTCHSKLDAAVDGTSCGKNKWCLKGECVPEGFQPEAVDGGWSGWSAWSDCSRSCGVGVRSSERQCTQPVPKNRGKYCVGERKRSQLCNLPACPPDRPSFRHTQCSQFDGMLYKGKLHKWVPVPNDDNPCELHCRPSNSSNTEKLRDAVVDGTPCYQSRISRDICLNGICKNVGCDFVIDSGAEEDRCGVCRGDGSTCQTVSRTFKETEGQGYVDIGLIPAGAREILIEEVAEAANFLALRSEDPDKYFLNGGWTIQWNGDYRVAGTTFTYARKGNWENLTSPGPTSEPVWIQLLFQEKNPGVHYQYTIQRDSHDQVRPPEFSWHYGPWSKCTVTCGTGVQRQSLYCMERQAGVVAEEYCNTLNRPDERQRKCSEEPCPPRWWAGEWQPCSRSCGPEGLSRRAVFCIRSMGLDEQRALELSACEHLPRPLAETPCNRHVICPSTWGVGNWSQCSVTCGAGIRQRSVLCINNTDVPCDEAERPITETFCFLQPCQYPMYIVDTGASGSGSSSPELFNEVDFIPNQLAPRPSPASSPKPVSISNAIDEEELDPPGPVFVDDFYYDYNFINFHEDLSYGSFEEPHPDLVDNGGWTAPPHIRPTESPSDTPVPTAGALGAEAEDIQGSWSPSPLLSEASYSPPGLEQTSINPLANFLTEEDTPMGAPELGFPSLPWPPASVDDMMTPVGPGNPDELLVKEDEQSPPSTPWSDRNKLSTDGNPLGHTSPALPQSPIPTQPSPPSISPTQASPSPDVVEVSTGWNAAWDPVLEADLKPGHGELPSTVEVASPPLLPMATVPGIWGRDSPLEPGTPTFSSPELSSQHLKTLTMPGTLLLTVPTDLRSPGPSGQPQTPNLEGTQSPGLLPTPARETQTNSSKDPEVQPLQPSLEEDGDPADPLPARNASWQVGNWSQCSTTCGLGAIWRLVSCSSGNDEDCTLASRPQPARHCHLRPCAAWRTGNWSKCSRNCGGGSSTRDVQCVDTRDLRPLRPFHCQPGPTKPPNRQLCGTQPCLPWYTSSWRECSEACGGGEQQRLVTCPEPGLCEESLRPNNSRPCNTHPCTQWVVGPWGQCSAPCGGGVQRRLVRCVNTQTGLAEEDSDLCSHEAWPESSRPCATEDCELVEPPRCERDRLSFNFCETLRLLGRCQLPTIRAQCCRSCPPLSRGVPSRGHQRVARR

With `Cn1nccc1[C@]1(CNC(=O)c2ccc(F)c(F)c2-c2ccc(C(F)(F)F)cc2)NC(=O)NC1=O` the Activity [1] was “Not Active”, the AUC/dose [2] was 3 kg·h/L and the solubility [3] was 135 µg/mL (≈ 274 µM). For the same compound, the “inhibition (INH)” value [4] was “Not Active”, the Ratio IC50 [5] was 1120 and the t1/2 [6] was 2.1 h. The Vdss [7] was 1.6 L/kg, the Fu [8] was 5% and the “inhibition (INH)” value [9] was “Not Active”. The Fu [10] was 5%, the Ratio IC50 [11] was 1650 and the IC50 [12] was 8 nM. The Ratio IC50 [13] was over 16700, the “inhibition (INH)” value [14] was “Not Active” and the t1/2 [15] was 2.5 h. For the same compound, the Ratio IC50 [16] was 896 and the CL [17] was 0.33 mL/min/kg.
